Measured values from patent publication EP1585727B1, “INDOLES USEFUL IN THE TREATMENT OF ANDROGEN-RECEPTOR RELATED DISEASES” (priority 2002, dated 2004).
pEC50: −log10 of the molar value. Counter-ions that a name gives are not always drawn.

Target: T1, human androgen receptor (Homo sapiens, UniProt P10275)
T1 construct: expressed in transfected cells; host or cells: Chinese hamster ovary (CHO) cells, cell line CHO-AR-pMMTV-LUC 1G12-A5-CA
T1 sequence (P10275 1-920): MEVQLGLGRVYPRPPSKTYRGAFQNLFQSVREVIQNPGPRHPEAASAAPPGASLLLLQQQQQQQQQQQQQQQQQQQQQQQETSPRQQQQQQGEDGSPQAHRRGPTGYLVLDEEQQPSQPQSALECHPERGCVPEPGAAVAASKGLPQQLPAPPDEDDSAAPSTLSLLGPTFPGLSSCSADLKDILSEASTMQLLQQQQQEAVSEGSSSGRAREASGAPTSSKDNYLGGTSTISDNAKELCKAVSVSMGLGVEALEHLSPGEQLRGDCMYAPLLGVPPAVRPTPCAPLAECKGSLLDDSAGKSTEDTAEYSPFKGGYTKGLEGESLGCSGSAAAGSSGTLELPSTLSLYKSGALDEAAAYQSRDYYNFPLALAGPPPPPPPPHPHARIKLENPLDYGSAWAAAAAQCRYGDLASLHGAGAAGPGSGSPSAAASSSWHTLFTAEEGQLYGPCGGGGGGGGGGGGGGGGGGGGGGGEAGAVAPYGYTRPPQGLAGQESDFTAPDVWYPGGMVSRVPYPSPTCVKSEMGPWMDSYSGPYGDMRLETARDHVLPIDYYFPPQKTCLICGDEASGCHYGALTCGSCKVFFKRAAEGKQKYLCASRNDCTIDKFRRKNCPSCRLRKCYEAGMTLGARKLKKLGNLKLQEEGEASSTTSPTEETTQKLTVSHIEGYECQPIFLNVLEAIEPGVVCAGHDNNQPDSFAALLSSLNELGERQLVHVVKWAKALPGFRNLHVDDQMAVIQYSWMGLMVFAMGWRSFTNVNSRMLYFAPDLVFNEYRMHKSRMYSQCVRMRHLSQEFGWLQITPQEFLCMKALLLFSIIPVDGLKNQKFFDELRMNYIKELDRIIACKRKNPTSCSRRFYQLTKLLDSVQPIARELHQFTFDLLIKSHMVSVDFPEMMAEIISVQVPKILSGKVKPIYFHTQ
Assay: Androgen receptor transactivation assay, antiandrogenic activity: inhibition of transactivation in the presence of 1 nM DHT (CHO-AR-pMMTV-LUC cells; Table 4)
Format: cell-based
Conditions: antiandrogenic activity, in the presence of 1 nM DHT; read-out: ant EC50
Procedure: Compounds were tested for their Androgen Receptor activity in a transactivation assay and in a binding assay.
The (anti-)androgenic activity of test compounds (EC50 and intrinsic activity) was determined in an in vitro bioassay of Chinese hamster ovary (CHO) cells stably transfected with the human androgen receptor expression plasmid and a reporter plasmid in which the MMTV-promoter is linked to the luciferase reporter gene. The cell-line CHO-AR-pMMTV-LUC 1G12-AS-CA is described in Schoonen et al. (2000), Journal of Steroid Biochemistry and Molecular Biology 74(4):213-222. The antiandrogenic activity of a test compound was determined by the inhibition of the transactivation via the androgen receptor of the enzyme luciferase in the presence of 1 nM DHT (5 α-dihydrotestosterone, 17β-hydroxy-5α-androstan-3-one). Intrinsic activity of antiandrogenic activity was determined in the presence of the reference antiandrogen 2-Hydroxy-2-methyl-N-(4-nitro-3-trifluoromethyl-phenyl)-propionamide (Hydroxyflutamide), and set at 100%. For androgenic activity, maximal intrinsic activity in the presence of 100 nM DHT was set at 100%. Table 4 Androgen receptor activity

Structure (SMILES) | pEC50
CC(C)NC(=O)c1ccc2c(Sc3ccccc3[N+](=O)[O-])cn(Cc3cc(F)cc(F)c3)c2c1 [Compound 46] | < 5.00

Same assay, conditions: in the presence of 1 nM DHT; intrinsic activity relative to reference antiandrogen Hydroxyflutamide (set at 100%); read-out: ant efficacy

Structure (SMILES) | Emax [%]
COc1ccc2c(Sc3ccccc3[N+](=O)[O-])cn(Cc3cc(F)ccc3F)c2c1 [Compound 1] | < 20
COc1ccc2c(Sc3ccccc3[N+](=O)[O-])cn(Cc3cccc(C)c3F)c2c1 [Compound 2] | < 20
COc1ccc2c(Sc3ccccc3[N+](=O)[O-])cn(Cc3ccccc3Cl)c2c1 [Compound 3] | < 20
COc1ccc2c(Sc3ccccc3[N+](=O)[O-])cn(Cc3ccccc3C#N)c2c1 [Compound 4] | 20 to 50
COc1ccc2c(Sc3ccccc3[N+](=O)[O-])cn(Cc3ccccc3F)c2c1 [Compound 5] | < 20
COc1ccc2c(Sc3ccccc3[N+](=O)[O-])cn(Cc3ccccc3C)c2c1 [Compound 7] | < 20
COc1ccc2c(Sc3ccccc3[N+](=O)[O-])cn(Cc3ccccn3)c2c1 [Compound 10, 6-Methoxy-3-(2-nitro-phenylsulfanyl)-1-pyridin-2 ylmethyl-1H-indole monohydrochloride] | < 20
COc1ccc2c(Sc3ccccc3[N+](=O)[O-])cn(Cc3ccccc3C(F)(F)F)c2c1 [Compound 12] | < 20
COc1ccc2c(Sc3ccccc3[N+](=O)[O-])cn(Cc3cc(C)on3)c2c1 [Compound 13] | < 20
COc1ccc2c(Sc3ccccc3[N+](=O)[O-])cn(Cc3ccc(Cl)c(Cl)c3)c2c1 [Compound 14] | < 20
COc1ccc2c(Sc3ccccc3[N+](=O)[O-])cn(Cc3cc(Cl)cc(Cl)c3)c2c1 [Compound 15] | < 20
CNC(=O)c1ccccc1Sc1cn(Cc2cc(F)cc(F)c2)c2cc(OC)ccc12 [Compound 17, 2-[1-(3,5-Difluoro-benzyl)-6-methoxy-1H-indol-3-ylsulfanyl]-N-methyl-benzamide] | 50 to 80
COC(=O)c1ccccc1Sc1cn(Cc2cc(F)cc(F)c2)c2cc(OC)ccc12 [Compound 19, 2-[1-(3,5-Difluoro-benzyl)-6-methoxy-1H-indol-3-ylsulfanyl]-benzoic acid methyl ester] | < 20
COc1ccc2c(Sc3ccccc3C#N)cn(Cc3cc(F)cc(F)c3)c2c1 [Compound 20, 2-[1-(3,5-Difluoro-benzyl)-6-methoxy-1H-indol-3-ylsulfanyl]-benzonitrile] | < 20
O=[N+]([O-])c1ccccc1Sc1cn(Cc2cc(F)cc(F)c2)c2cc(Br)ccc12 [Compound 22] | < 20
O=[N+]([O-])c1ccccc1Sc1cn(Cc2cc(F)cc(F)c2)c2cc(C(F)(F)F)ccc12 [Compound 23] | < 20
O=[N+]([O-])c1ccccc1Sc1cn(Cc2cc(F)cc(F)c2)c2cc(CO)ccc12 [Compound 24] | < 20
O=[N+]([O-])c1ccccc1Sc1cn(Cc2cc(F)cc(F)c2)c2cc(Cl)ccc12 [Compound 25] | < 20
N#Cc1ccc2c(Sc3ccccc3[N+](=O)[O-])cn(Cc3cc(F)cc(F)c3)c2c1 [Compound 26, 1-(3,5-Difluoro-benzyl)-3-(2-nitro-phenylsulfanyl)-1H-indole-6-carbonitrile] | < 20
O=C(c1ccc2c(Sc3ccccc3[N+](=O)[O-])cn(Cc3cc(F)cc(F)c3)c2c1)N1CCCC1 [Compound 27] | < 20

Structure (SMILES) | Emax [%]
O=C(c1ccc2c(Sc3ccccc3[N+](=O)[O-])cn(Cc3cc(F)cc(F)c3)c2c1)N1CCOCC1 [Compound 28] | < 20
CN1CCN(C(=O)c2ccc3c(Sc4ccccc4[N+](=O)[O-])cn(Cc4cc(F)cc(F)c4)c3c2)CC1 [Compound 29] | < 20
O=C(O)c1ccc2c(Sc3ccccc3[N+](=O)[O-])cn(Cc3cc(F)cc(F)c3)c2c1 [Compound 30, 1-(3,5-Difluoro-benzyl)-3-(2-nitro-phenylsulfanyl)-1H-indole-6-carboxylic acid] | < 20
COC(=O)c1ccc2c(Sc3ccccc3[N+](=O)[O-])cn(Cc3cc(F)cc(F)c3)c2c1 [Compound 31, 1-(3,5-Difluoro-benzyl)-3-(2-nitro-phenylsulfanyl)-1H-indole-6-carboxylic acid methyl ester] | < 20
NC(=O)c1ccc2c(Sc3ccccc3[N+](=O)[O-])cn(Cc3cc(F)cc(F)c3)c2c1 [Compound 33, 1-(3,5-Difluoro-benzyl)-3-(2-nitro-phenylsulfanyl)-1H-indole-6-carboxylic acid amide] | < 20
O=C(NCc1ccco1)c1ccc2c(Sc3ccccc3[N+](=O)[O-])cn(Cc3cc(F)cc(F)c3)c2c1 [Compound 34] | < 20
O=C(NCc1cccnc1)c1ccc2c(Sc3ccccc3[N+](=O)[O-])cn(Cc3cc(F)cc(F)c3)c2c1 [Compound 35] | < 20
CN(C)CCNC(=O)c1ccc2c(Sc3ccccc3[N+](=O)[O-])cn(Cc3cc(F)cc(F)c3)c2c1 [Compound 36] | < 20
O=C(NCCO)c1ccc2c(Sc3ccccc3[N+](=O)[O-])cn(Cc3cc(F)cc(F)c3)c2c1 [Compound 37] | < 20
COCCNC(=O)c1ccc2c(Sc3ccccc3[N+](=O)[O-])cn(Cc3cc(F)cc(F)c3)c2c1 [Compound 38] | < 20
COC(=O)CNC(=O)c1ccc2c(Sc3ccccc3[N+](=O)[O-])cn(Cc3cc(F)cc(F)c3)c2c1 [Compound 39] | < 20
CN(C)C(=O)CNC(=O)c1ccc2c(Sc3ccccc3[N+](=O)[O-])cn(Cc3cc(F)cc(F)c3)c2c1 [Compound 40] | < 20
O=C(NCC1CC1)c1ccc2c(Sc3ccccc3[N+](=O)[O-])cn(Cc3cc(F)cc(F)c3)c2c1 [Compound 41] | < 20
CC(C)CNC(=O)c1ccc2c(Sc3ccccc3[N+](=O)[O-])cn(Cc3cc(F)cc(F)c3)c2c1 [Compound 42] | < 20
O=C(NC1CC1)c1ccc2c(Sc3ccccc3[N+](=O)[O-])cn(Cc3cc(F)cc(F)c3)c2c1 [Compound 44] | < 20
CCNC(=O)c1ccc2c(Sc3ccccc3[N+](=O)[O-])cn(Cc3cc(F)cc(F)c3)c2c1 [Compound 45] | < 20
CNC(=O)c1ccc2c(Sc3ccccc3[N+](=O)[O-])cn(Cc3cc(F)cc(F)c3)c2c1 [Compound 47, 1-(3,5-Difluoro-benzyl)-3-(2-nitro-phenylsulfanyl)-1H-indole-6-carboxylic acid methylamide] | < 20
CN(C)C(=O)c1ccc2c(Sc3ccccc3[N+](=O)[O-])cn(Cc3cc(F)cc(F)c3)c2c1 [Compound 49] | < 20
O=[N+]([O-])c1ccccc1Sc1cn(Cc2cc(F)cc(F)c2)c2cc(F)ccc12 [Compound 50] | < 20

Same assay, conditions: read-out: ant efficacy, in the presence of 1 nM DHT; intrinsic activity relative to reference antiandrogen Hydroxyflutamide (set at 100%)

Structure (SMILES) | Emax [%]
COc1ccc2c(Sc3ccccc3[N+](=O)[O-])cn(Cc3cccc([N+](=O)[O-])c3C)c2c1 [Compound 6] | < 20
COc1ccc2c(Sc3ccccc3[N+](=O)[O-])cn(Cc3ccccc3[N+](=O)[O-])c2c1 [Compound 8] | < 20
COc1ccc2c(Sc3ccccc3[N+](=O)[O-])cn(Cc3ccccn3)c2c1 [Compound 9, 6-Methoxy-3-(2-nitro-phenylsulfanyl)-1-pyridin-2-ylmethyl-1H-indole] | 20 to 50
COc1ccc2c(Sc3ccccc3[N+](=O)[O-])cn(CC3CCCCO3)c2c1 (stereo not shown) [Compound 11] | < 20
COc1ccc2c(Sc3ccccc3CO)cn(Cc3cc(F)cc(F)c3)c2c1 [Compound 16, {2-[1-(3,5-Difluoro-benzyl)-6-methoxy-1H-indol-3-ylsulfanyl]-phenyl}-methanol] | 20 to 50
CCN(CC)C(=O)c1ccc2c(Sc3ccccc3[N+](=O)[O-])cn(Cc3cc(F)cc(F)c3)c2c1 [Compound 32] | 20 to 50
O=C(NCc1ccccc1)c1ccc2c(Sc3ccccc3[N+](=O)[O-])cn(Cc3cc(F)cc(F)c3)c2c1 [Compound 43] | 20 to 50
CC(C)NC(=O)c1ccc2c(Sc3ccccc3[N+](=O)[O-])cn(Cc3cc(F)cc(F)c3)c2c1 [Compound 46] | 20 to 50
CCCNC(=O)c1ccc2c(Sc3ccccc3[N+](=O)[O-])cn(Cc3cc(F)cc(F)c3)c2c1 [Compound 48] | 20 to 50
